Test results taken from US20080145346A1, “Methods And Compounds For Altering The Load Of Hepatitis Virus” (Agency for Science, Technology and Research, priority 2003, published 2008).

Test system: hnRNP K
Assay: Electrophoretic Mobility Shift Assay (EMSA) of HBV enhancer II probes with HepG2 nuclear extracts
Format: binding, human
Settings: 10 μg HepG2 nuclear extracts; 32P end-labelled 28-mer probe
Experimental: 28-mer oligonucleotide probes were designed to contain either the 1752A or 1752G nucleotide with control probes taken from the adjacent upstream sequence. EMSA was performed using HepG2 nuclear extracts with the four respective probes. Probe 1 (SEQ ID NO: 12): Lanes 1 to 4; Probe 2 (SEQ ID NO: 13, A^1752): Lanes 5 to 8; Probe 3 (SEQ ID NO: 14): Lanes 9 to 12; Probe 4 (SEQ ID NO: 15, G^1752): Lanes 13 to 16. Each set of probes contains increasing concentrations (0.0 μg, 0.05 μg, 0.10 μg and 0.15 μg) of non-specific competitor DNA of [poly-(dI)-poly-(dC)] respectively. This competitor DNA is included to minimize the binding of nonspecific proteins to the labeled probes. DNA-protein complexes migrate at a different speed than free DNA molecules. […] Verification of the presence of hnRNP K as the second component in the complex can subsequently be performed by an analysis as shown in FIG. 19. hnRNP K was detected using the 1752A probe (Probe 2, lanes 5 to 8) along with a weaker band of similar size using the 1752G probe (Probe 4, lanes 13 to 16). […]
HBV-hnRNP K interaction was analysed by a method that is known to persons skilled in the art as an “electrophoretic mobility shift assay” or “EMSA”. […] The 1752A probe (Probe 2, lanes 5 to 8) detected hnRNP K in form of a band. A corresponding weaker band of hnRNP was detected by the 1752G probe (Probe 4, lanes 13 to 16 in FIG. 18).

AGTTGGGGGAGGAGATTAGGTTAAAGGT (listed as DNA, chemistry not given here) [Probe 2, 28-mer HBV enhancer II oligonucleotide probe containing 1752A]
densitometric band signal of hnRNP K higher than that detected by Probe 4: about 300%
